Values of other authors, collected in patent publication US20040202718A1, “Dosage form for treatment of diabetes mellitus” (priority 2001, published 2004).
Counter-ions that a name gives are not always drawn.

Conditions: clinical study disclosed in U.S. Pat. No. 5,922,769

Compound: CN(C)C(=N)N=C(N)N [Metformin hydrochloride]
- maximum dose which does not cause any side-effects: 1500 mg/day
